Reference: US20230140798A1, “SYNTHETIC PEPTIDES DIRECTED AGAINST THE METABOTROPIC GLUTAMATE RECEPTOR 5” (Lactocore, Inc., priority 2020, published 2023)
“Also recorded” adds a separate entry of the source.

Assays:
mGluR5 (GRM5) = assay: HEK 293 cells mGluR5-luciferase reporter assay (β-arrestin2 recruitment); format: cell-based, human; details: for effect on CHPG-induced mGluR5 activity (luciferase signal): + 1 mM CHPG
Source text: The methodology was previously described by Kroeze (Kroeze et al. (2015). PRESTO-Tango as an open-source resource for interrogation of the druggable human GPCRome. Nat. Struct. Mol. Biol. 22(5): 362) and the principle is illustrated in FIG. 19. Briefly, the cells of HEK293 cell line are transfected with 3 types of plasmids:
Plasmid 1: encodes fusion GRMS-tTA protein. The linker between GRMS and tTA is sensitive to TEV-protease (www.addgene.org/66390/).
Plasmid 2: encodes β-arrestin2/TEV-protease fusion protein (www.addgene.org/107245/).
Plasmid 3: luciferase tTA reporter (www.addgene.org/64127/).
Sufficient quantities of fusion proteins were produced during 24 hours after transfection. mGluR5 (GRM5) activation by a selective agonist CHPG (SEQ ID NO: 18) (1) leads to recruiting of β-arrestin2/TEV-protease fusion protein (2), that cleaves the linker between GRM5 and tTA (3). Released tTA transcription factor (4) binds with its consensus sites in tTA luciferase reporter plasmid (5) that results in activation of luciferase expression. The activity of luciferase can be used to estimate the activity of mGluR5, and application of negative allosteric modulators of mGluR5 should lead to a dose-dependent decrease in luciferase activity in this system (FIG. 19).
Sufficient quantities of the plasmids were produced using standard applications before the experiment. HEK293 cells were co-transfected with three plasmids using polyethylenimine (PEI, 408727, Sigma-Aldrich, USA) 24 hours prior to agonists application. Transfected cells were treated with agonists/antagonists and incubated overnight (16 hours). Antagonists were introduced 10 minutes prior to agonists. Luciferase test was performed using Promega™ Luciferase Assay Systems Kit (PR-E1500, Promega, USA) according to the manufacturer's protocol.
CHPG—orthosteric selective mGlu5 receptor agonist (HB0033, HelloBio, USA). […]

Sprague-Dawley rats = assay: Modified Porsolt Forced Swim test (FST), rats; format: in vivo; details: i.p.; group name 5 mg/kg, test substance 20 mg/kg
Procedure: As part of this modification, two tests are carried out within two days. The installation is a transparent cylinder, 30 cm high, 10 cm in diameter and filled with water (water temperature 21° C.-23° C.) to a mark at a height of 25 cm. On the first day, each animal is placed in the apparatus for ten minutes. Behavioral parameters are not recorded. The animals are placed in the cylinder for 10 minutes again on the second day. The duration of active (vigorous movements with all paws) and passive (weak strokes with hind legs) swimming, as well as immobility (immobilization) (Porsolt et al. (1977) Behavioral despair in mice: a primary screening test for antidepressants. Arch Int Pharmacodyn Ther. 229(2):327-36) are recorded. After each test, the rats are placed in a heated cage until dry. The behavioral indicators in this test are processed using the Real Timer Program developed by Open Science. The sequence of events, their duration, as well as conduct basic statistical data processing are recorded.

human mGluR5 = biological target: T1, human mGluR5 (Homo sapiens, UniProt P41594); assay: Sodium glutamate-evoked [Ca^2+] responses in CHO-mGluR5 cells (calcium-flux imaging); format: cell-based
T1 construct: expressed in transfected cells; host or cells: CHO cells carrying pcDNA6/TR (T-REx system)
T1 sequence (P41594 21-1212): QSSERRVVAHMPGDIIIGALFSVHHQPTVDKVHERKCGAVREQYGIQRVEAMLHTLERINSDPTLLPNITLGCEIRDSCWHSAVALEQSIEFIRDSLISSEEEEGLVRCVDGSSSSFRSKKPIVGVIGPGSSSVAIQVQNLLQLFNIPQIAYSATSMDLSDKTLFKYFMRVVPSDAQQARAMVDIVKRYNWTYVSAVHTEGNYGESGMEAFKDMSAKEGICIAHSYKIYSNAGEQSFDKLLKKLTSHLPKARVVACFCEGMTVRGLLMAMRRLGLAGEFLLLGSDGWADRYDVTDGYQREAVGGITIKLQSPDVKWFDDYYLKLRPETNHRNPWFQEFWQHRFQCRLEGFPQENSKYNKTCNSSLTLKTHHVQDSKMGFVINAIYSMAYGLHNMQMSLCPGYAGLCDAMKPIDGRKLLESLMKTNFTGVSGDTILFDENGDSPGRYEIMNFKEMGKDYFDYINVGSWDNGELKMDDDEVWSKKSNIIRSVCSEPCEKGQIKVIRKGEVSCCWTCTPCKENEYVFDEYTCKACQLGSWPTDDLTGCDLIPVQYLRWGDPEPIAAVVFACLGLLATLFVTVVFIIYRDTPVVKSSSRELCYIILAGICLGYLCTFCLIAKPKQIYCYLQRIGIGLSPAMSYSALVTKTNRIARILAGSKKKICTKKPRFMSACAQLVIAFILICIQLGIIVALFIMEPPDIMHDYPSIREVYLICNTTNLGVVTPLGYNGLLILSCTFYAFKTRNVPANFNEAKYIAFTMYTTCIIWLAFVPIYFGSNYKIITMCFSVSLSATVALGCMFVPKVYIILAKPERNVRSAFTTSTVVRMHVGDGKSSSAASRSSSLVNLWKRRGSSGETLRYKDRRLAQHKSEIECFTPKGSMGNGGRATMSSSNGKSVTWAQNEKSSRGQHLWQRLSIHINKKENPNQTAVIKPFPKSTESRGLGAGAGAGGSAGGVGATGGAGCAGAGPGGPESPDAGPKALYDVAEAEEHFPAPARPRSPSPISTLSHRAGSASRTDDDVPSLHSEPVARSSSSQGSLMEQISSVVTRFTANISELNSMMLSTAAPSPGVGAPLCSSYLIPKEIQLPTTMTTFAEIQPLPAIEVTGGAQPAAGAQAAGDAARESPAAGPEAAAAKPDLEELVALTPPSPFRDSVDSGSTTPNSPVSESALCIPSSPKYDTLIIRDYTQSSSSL
Source text: CHO-mGluR5 cells with tetracycline-induced stable expression of human mGluR5.
The CHO cell line stably expressing human mGluR5 was generated using T-Rex System (Thermo Fisher Scientific Inc., Waltham, Mass., USA) according to the manufacturer's' instructions. Briefly, cDNA encoding human mGluR5 was subcloned into inducible expression vector pcDNA4/TO and was transfected into CHO cells carrying regulatory vector pcDNA6/TR that expresses the tetracycline repressor. After 2 weeks of selection using Blasticidin (5 µg/ml) and zeocin (250 µg/ml), pools of cells were screened for the expression of mGluR5 in the agonist-induced [Ca^2+] uptake assay. Positive cells were expanded and used. mGluR5 expression was induced by adding tetracycline (up to 1 µg/ml) 16 h before testing.
Fluorescent assays were performed using NOVOstar (BMG LABTECH, Ortenberg, Germany). CHO-mGluR5 cells were seeded into black-walled clear-bottomed 96-well plates at a density of 75,000 cells per well (complete media without antibiotics and containing 1 µg/ml of tetracycline to induce receptor expression) and were cultured overnight at 37° C. […] After a 3-min incubation at 37° C., changes in cell fluorescence ([…]) were monitored before and after the addition of the mGLuR5 agonist (1 mM sodium glutamate—Glu-Na). […]

Wistar rats [1] = assay: Open Field test in Acute Foot Shock (AFS) stress model; format: in vivo; details: 4.5 mg/kg i.p. daily for ten days after AFS
Procedure: (§1) KEDV (SEQ ID NO: 4) and RAHE (SEQ ID NO: 3) (Lactocore Inc.) were administered intranasally (i.n), daily for 10 days at a dose of 1 mg/kg and 5 mg/kg. Peptides were prepared freshly each day in saline. The solution for i.n. administration of 5 mg/kg in a volume of 15 μl (single administration) contained 1.3 mg KEDV (SEQ ID NO: 4) or RAHE (SEQ ID NO: 3), and a solution for intranasal administration of 1 mg/kg in a volume of 10 μl (single administration) contained 0.26 mg KEDV (SEQ ID NO: 4) or RAHE (SEQ ID NO: 3).
(§2) The tetracyclic antidepressant Maprotiline (MAP, “Lyudiomil”), was used as a drug of comparison. Animals received a daily intraperitoneal injection (i.p) of MAP for ten days (M9651, Merck, in a dose of 4.5 mg/kg, dissolved in saline, 250 μl per administration).
(§3) Stimulation was performed automatically using a software randomizer.
The OF test is a classic method for assessing the level of motor activity and exploratory behavior of rodents in new stressogenic conditions. The test was performed in a cage of 90×90×45 cm without a roof, the floor of which was laid out on squares 15×15 cm and lit from above by a 60 W lamp. On the 5th day after stressing in the LH model, the rat was placed in the center of the OF. The following parameters were measured for 5 minutes: latency to start of moving, the number of crossed squares, the duration of rears and freezing.

Wistar rats [2] = assay: Elevated Plus Maze test in Acute Foot Shock (AFS) stress model; format: in vivo
Procedure: as §1, §2, §3
EPM testing allows characterizing the behavior of rodents under the variable stress conditions, which makes it possible to assess the level of animal anxiety and anxiolytic effects of drugs. On the 6th day after the experimental exposure, the rats were tested one at a time for 5 min in the EPM installation, located at a height of 75 cm above the floor, and consisting of 2 open illuminated and 2 closed arms with exits. The time spent by the animal inside and outside the closed arms (in the open arms and in the center), the number of transitions between the arms, the number of stretch-attended postures were evaluated. Usually, animals tend to stay in the closed arms, anxiolytic treatment results in an increment of the time spent on the open arms of the maze (Pellow et al. (1985). Validation of open: closed arm entries in an elevated plus-maze as a measure of anxiety in the rat. J. Neurosci. Methods, 14(3), 149-167; Walf et al. (2007). The use of the elevated plus maze as an assay of anxiety-related behavior in rodents. Nat. Protoc., 2(2), 322-328).

Wistar rats [3] = assay: Dexamethasone test (DXMT), serum corticosterone, AFS model; format: in vivo; details: 4.5 mg/kg i.p. daily, after AFS; DXM 10 μg/kg
Procedure: as §3
Evaluation of the stress-evoked release of glucocorticoid hormones (corticosterone, an analog of cortisol in humans) and its suppression by the introduction of synthetic glucocorticosteroid was performed on the 9-10th day after the development of LH in a two-day dexamethasone test according to the scheme, taking into account the specificity of the circadian rhythm of HPA axis function in rats (Zhukov (1993). The dexamethasone suppression test in genetically different rats exposed to inescapable and escapable electric shocks. Psychoneuroendocrinology, 18(7), 467-474.].
On the first day of the test (DXMT1) at 10:00 AM, animals were injected (i.p.) with saline, then at 04:00 PM on the same day peripheral blood samples were taken to determine the basal level of the hormone, which caused stress, and 30 minutes after taking the rat from the cage and receiving initial sample, re-taken blood to measure hormone stress level.
To study the sensitivity of the HPA system to feedback signals, rats were injected with dexamethasone (DXM, 10 μg/kg, i.p.) the next day (DXMT2) at 10 AM. The procedure for taking blood from the tail vein was repeated after 6 and 6.5 hours. The corticosterone content was determined by enzyme-linked immunosorbent assay with reagent kits “Corticosterone-ELISA” (“Hema”, RF) in two parallel samples.

[4] = MAP 4.5 mg/kg i.p., AFS, overall median 0.00

For `NC(C(=O)O)c1cc(O)ccc1Cl` (stereo not shown) [CHPG], the “luciferase signal (mGluR5 activation)” value (mGluR5 (GRM5); 1 mM, 16-hours incubation) was “significant induction of luciferase signal”.
For `CNCCC(Oc1ccc(C(F)(F)F)cc1)c1ccccc1` (stereo not shown) [Fluoxetine, fluoxetine], the “antidepressant-like properties in FST” value (Sprague-Dawley rats) was “not observed”.
In the case of `N[C@@H](CCC(=O)[O-])C(=O)[O-].[Na+].[Na+]` [GluNa, sodium glutamate], the “intracellular [Ca^2+] levels vs buffer” value (human mGluR5; 1 mM, CHO-mGluR5 cells) is reported as “elevated intracellular [Ca^2+] levels”.
`CNCCCC12CCC(c3ccccc31)c1ccccc12` [MAP, Maprotiline] was tested, and the “freezing behavior vs stressed saline-treated animals” value (Wistar rats [1]) was “significant reduction of freezing behavior”, the “proportion of animals that went to the open arms of the maze” value (Wistar rats [2]; 4.5 mg/kg i.p. daily, after AFS) was 78% and the “time in open arms <=Median: obs. − exp.” value (Wistar rats [2]; MAP 4.5 mg/kg i.p., AFS) was −2.86. The “time in open arms >Median: obs. − exp.” value (Wistar rats [2]; MAP 4.5 mg/kg i.p., AFS) was 2.86, the “time in open arms <=Median: observed (animals)” value (Wistar rats [2]; [4]) was 2.00 and the “time in open arms >Median: observed (animals)” value (Wistar rats [2]; [4]) was 7.00. The “suppression of stress CS levels in serum by DXM” value (Wistar rats [3]) was “more than 50%”.
In the case of `Cc1cccc(C#Cc2ccccc2)n1` [MPEP, 2-methyl-6-(phenylethynyl)-pyridine], the “effect on GluNa-induced activation” value (human mGluR5; pre-treatment 0.1, 1, 10, 100 μM, 1 mM GluNa) is reported as “abolished GluNa-induced activation”.
In the case of `Cc1ccc(O)c(N=Nc2ccccc2)n1` [SIB 1757], the “effect on CHPG-induced mGluR5 activity (luciferase signal)” value (mGluR5 (GRM5); 10 μM) is reported as “inhibition of mGluR5 activity; also recorded: significant decrease of luciferase signal” and the “effect on CHPG-induced mGluR5 activity (luciferase signal)” value (mGluR5 (GRM5); 100 μM) is reported as “inhibition of mGluR5 activity”.
